Four compounds from patent US9907312B2, “Compositions comprising a biological control agent and an insecticide” (priority 2012, dated 2018) can be followed below.

Format in all cases: in vivo
One assay deals with Myzus persicae. As to the kind of experiment: Myzus persicae spray test (MYZUPE), Chinese cabbage leaf-disks. Particulars: mortality after 6 d. As for the experimental part: (§1) For all examples the efficiencies of the compositions comprising at least one BCA and at least one specific insecticide has been determined by the “Colby-formula”: The expected efficacy of a given combination of two compounds is calculated as follows (see Colby, S. R., “Calculating Synergistic and antagonistic Responses of Herbicide Combinations”, Weeds 15, pp. 20-22, 1967):
(§2) If • X is the efficacy expressed in % mortality of the untreated control for test compound A at a concentration of m ppm respectively m g/ha, • Y is the efficacy expressed in % mortality of the untreated control for test compound B at a concentration of n ppm respectively n g/ha, • E is the efficacy expressed in % mortality of the untreated control using the mixture of A and B at m and n ppm respectively m and n g/ha, then is E=X+Y−(X×Y/100)
(§3) If the observed insecticidal efficacy of the combination is higher than the one calculated as “E”, then the combination of the two compounds is more than additive, i.e., there is a synergistic effect.
(§4) To produce a suitable preparation of active compound, 1 part by weight of active compound is mixed with the stated amount of solvent and emulsifier, and the concentrate is diluted with emulsifier-containing water to the desired concentration. To produce a suitable preparation of a spore suspension the spores are diluted with emulsifier-containing water to the desired concentration.
Chinese cabbage (Brassica pekinensis) leaf-disks infected with all instars of the green peach aphid (Myzus persicae), are sprayed with a preparation of the active ingredient of the desired concentration.
After the specified period of time, mortality in % is determined. 100% means all aphids have been killed; 0% means none of the aphids have been killed. The mortality values determined thus are recalculated using the Colby-formula (see above).

For another assay, the system named is Nilaparvata lugens. As to the kind of experiment: Nilaparvata lugens spray test (NILALU), rice plants. As to conditions: 1 ppm; mortality after 3 d. As for the experimental part:
as §1, §2, §3
To produce a suitable preparation of active compound, 1 part by weight of active compound is mixed with the stated amount of solvent and emulsifier, and the concentrate is diluted with emulsifier-containing water to the desired concentration. […]
After the specified period of time, mortality in % is determined. […]

In the next assay the test system is Phaedon cochleariae. Put plainly: Phaedon cochleariae spray test, Chinese cabbage leaf-disks. As to conditions: mortality after 6 d. As for the experimental part: as §1, §2, §3, §4
Chinese cabbage (Brassica pekinensis) leaf-disks are sprayed with a preparation of the active ingredient of the desired concentration. Once dry, the leaf disks are infested with mustard beetle larvae (Phaedon cochleariae).
After the specified period of time, mortality in % is determined. 100% means all beetle larvae have been killed and 0% means none of the beetle larvae have been killed. The mortality values determined thus are recalculated using the Colby-formula (see above).

The next assay concerns Tetranychus urticae. Put plainly: Tetranychus urticae spray test, OP-resistant, French beans. As to conditions: 0.032 g ai/ha; mortality after 2 d. As for the experimental part: as §1, §2
(§5) If the observed insecticidal efficacy of the combination is higher than the one calculated as “E”, then the combination of the two compounds is more than additive, i.e., there is a synergistic effect. […]
(§6) After the specified period of time, mortality in % is determined. […] The mortality values determined thus are recalculated using the Colby-formula (see above).

Another assay deals with Spodoptera frugiperda. Put plainly: Spodoptera frugiperda spray test, cotton leaves. As to conditions: 0.8 ppm; mortality after 1 d. As for the experimental part:
as §1, §2, §5, §6

As to `N#Cc1nn(-c2c(Cl)cc(C(F)(F)F)cc2Cl)c(N)c1[S+]([O-])C(F)(F)F` (stereo not drawn) [Fipronil (I95), Fipronil], the entries for the “Efficacy in % after 6d” value in the assay on Myzus persicae (4 g/ha), with Myzus persicae (100 g/ha) and in the assay on Phaedon cochleariae (0.25 g ai/ha) were 0%, 0% and 33%, respectively. For the same compound, the “Efficacy in % after 3d” value with Nilaparvata lugens came out at 0%.
As to Abamectin [Abamectin (I152)], the “Efficacy in % after 2d” value with Tetranychus urticae worked out at 0%. The “Efficacy in % after 6d” value in the assay on Phaedon cochleariae (0.8 g ai/ha) is given as 0%.
Turning to `CS/C(C)=N\OC(=O)N(C)SN(C)C(=O)O/N=C(\C)SC` [Thiodicarb (I21), Thiodicarb], the “Efficacy in % after 1d” value with Spodoptera frugiperda is recorded as 50%.
Consider `CNC(=O)Oc1cc(C)c(SC)c(C)c1` [Methiocarb (I15), Methiocarb], for which the “Efficacy in % after 6d” value with Myzus persicae (500 g/ha) and in the assay with Phaedon cochleariae (20 g ai/ha) was 0% each time.
